This note sets out measurements from patent US20190187129A1, “CANCER MODELING PLATFORMS AND METHODS OF USING THE SAME” (Wake Forest University Health Sciences, priority 2016, published 2019).

In assay [1] the test system is SW480 cells. Description: 2D drug screen, MTS assay. Type of assay: cell-based. Conditions: Homo sapiens, read-out: relative cellular viability (MTS, relative to control). How it is done: Cancer cells seeded directly into wells were given 4-5 hours to reattach to the bottom of the wells. After that time, the anticancer drug solutions were administered in place of the media (FIG. 6, panel A) and an MTS assay was carried out 2 days later to determine cell viability. […] At 100 μM concentrations of Regorafenib and Sorafenib, and 100 mM concentrations of 5-FU, cellular viability remained below 20% that of the control for all four of the colorectal cancer cell lines utilized. However, screening with Dabrafenib and Trametinib produced diverging results from the other three anticancer drugs at higher concentrations. […] When treated with 1 mM concentrations of 5-FU, relative cellular viability was approximately 39% for SW480 cells and remained between 10%-22% for the HCT116, HT29, and CACO2 cells. These values were considerably lower than the relative cellular viability values for the lowest concentrations of the other anticancer drugs.
Cell Seeding: The original 15 mL centrifuge tubes containing the 10 mL of DMEM-10, cells, and trypsin were placed into a centrifuge. The centrifugation setting was 1500 RPM and at maximal acceleration for 5 minutes. After that time, the media and trypsin mixture was aspirated from the tubes, leaving the cell pellets still intact. 5 mL of DMEM-10 was then pipetted into each of the tubes, resuspending the cells in the process. Calculated volumes of the 5 mL cell-media solution were determined to ensure that 25,000 cells of each of the four colorectal cancer cell lines were seeded directly into each of the wells of a polystyrene clear-bottom 96-well plate. 100 μL of DMEM-10 media was then pipetted directly into the wells. The 96-well plates were incubated at 37° C. and 5% CO2 for 5 hours to allow the cells to reattach themselves to the bottom of the wells until media was aspirated and anticancer drug solutions were added.
Addition of Anticancer Drugs for Screening: The anticolorectal cancer drugs used in this screening included 5-FU, Regorafenib, Sorafenib, Trametinib, and Dabrafenib (Sigma-Aldrich, Missouri, USA)). High concentration drug stock solutions were created with DMSO. Lower concentration drug solutions were created by mixing the anticancer drug stocks with DMEM-10 media. […] drug solutions were generated for 5-FU; 1 μM, 10 μM, and 100 μM drug solutions were generated for Regorafenib, Sorafenib, and Dabrafenib; and 1 nM, 10 nM, and 100 nM drug solutions were generated for Trametinib. Media was carefully aspirated from the wells and 200 μL of the various drug-media solutions were placed into the wells containing cells. Three duplicates were generated for each anticancer drug concentration with each of the different cell types to calculate averages and run statistics on the data generated. Well plates were then incubated at 37° C. and 5% CO2 for […].
Cell viability assay: Cell viability was determined 48 hours after exposure to the anticancer drug solutions. The viability of the cells was examined by the CellTiter 96® AQueous One Solution Cell Proliferation (MTS) assay (Promega, Wisconsin, USA). The anticancer drug-media solutions were aspirated from the wells and 200 μL of the MTS reagent was carefully pipetted into the wells. The incubation time for the cells with the MTS reagent was approximately 45 minutes. The cell viability assay was performed on another 96-well plate and the absorbance was quantified by the EnVision Multilabel Plate Reader (PerkinElmer, California, USA).

The test system of assay [2] is HCT116 cells. Description: 3D hyaluronan-based hydrogel construct drug screen, MTS assay. Conditions: Homo sapiens, HCT-116, 3D, read-out: percent relative cell viability (MTS, relative to control). How it is done:
Polydimethylsiloxane, or PDMS, was used to coat the bottom of the wells. Cells were embedded within the hyaluronan-based hydrogel and were given 5 days to acclimate to their three-dimensional environment and on day 5 were administered different anticancer drug solutions (FIG. 7, panel A). […], Dabrafenib had greater efficacy in targeting the HCT116 and SW480 cell lines, which had relative cellular viability values of 38% and 43%, as opposed to the HT29 and CACO2 cell lines, which had higher cell viability values of 93% and 75%. […]
(§1) Well Coating with PDMS and Cell Isolation: Polydimethylsiloxane, or PDMS, (DOW Corning, North Carolina, USA) was used at a 1:10 curing agent ratio to coat the bottom of the 96-well plates and the plates were then placed in a 80° C. oven for at least one hour. Cells were passaged in the same methods previously mentioned (A) with the desire to place 10 μL 3D hyaluronan-based hydrogel constructs containing 100,000 cells each ([…]) into the wells of a 96-wells plate for all four colorectal cancer cell types. Depending on the cell count, a desired number of cells were isolated in new 15 mL centrifuge tubes as cell-media solution and underwent centrifugation.
(§2) Hydrogel Components of the Single-Cell Type Constructs: The hyaluronic acid-based hydrogel (ESI BIO, California, USA) was produced using a mixture of three components: Heprasil, Gelin-S, and Extralink PEGDA 2-ARM Acrylate crosslinker. These components were mixed in a 2:2:1 ratio by volume. 0.1% Irgacure photoinitiator (Sigma-Aldrich, Missouri, USA) was added to each of the three components prior to their mixture and the three components were placed in a 37° C. incubator for a ˜30 minutes to solubilize.
(§3) Forming Organoid Constructs: Once solubilized, the media was aspirated from the 15 mL centrifuge tube (post-centrifugation) and the cells were isolated as a pellet. The hydrogel components were added directly into the centrifuge tube containing the cells and the cells were carefully resuspended in the mixture. 10 μL of the gel-cell solution was placed in the center of the wells on the PDMS coating. This was continued for all wells containing cells and was repeated for each cell type. After this point, the gel can be exposed to UV light from a BlueWave 200 spot light (Dymax, Connecticut, USA) to solidify the hydrogel, or one can wait ˜30 minutes for the gel to form on its own. DMEM-10 media was then placed in the wells and the constructs were incubated for 5 days.
(§4) Anticancer Drug Screening and Cell Viability: The same five anticancer drugs were added on Day 5 and the cell viability assay occurred on Day 7.

Assay [3] concerns HT29 cells. The assay is described as above. Type of assay: cell-based. To be noted: Homo sapiens. How it is done:
(§5) Polydimethylsiloxane, or PDMS, was used to coat the bottom of the wells. Cells were embedded within the hyaluronan-based hydrogel and were given 5 days to acclimate to their three-dimensional environment and on day 5 were administered different anticancer drug solutions (FIG. 7, panel A). […] At 100 μM concentrations of Regorafenib and Sorafenib, cellular viability remained below 25% that of the control for all four of the colorectal cancer cell lines utilized. The only exception to this was when 100 μM Regorafenib was administered to CACO2 cells and the percent relative cell viability rose to approximately 48%. […] At a 100 μM concentration, Dabrafenib had greater efficacy in targeting the HCT116 and SW480 cell lines, which had relative cellular viability values of 38% and 43%, as opposed to the HT29 and CACO2 cell lines, which had higher cell viability values of 93% and 75%. 100 μM concentrations of Trametinib produced relative cellular viability results that fell within a narrow range for the four colorectal cell lines with values of 54% for SW480 cells and 74% for HT29 cells.
as §1, §2, §3, §4

Assay [4] has as its system SW480 cells. The assay is described as above. Type of assay: cell-based. To be noted: Homo sapiens. How it is done: as §5, §1, §2, §3, §4

For the compound `O=c1[nH]cc(F)c(=O)[nH]1` [5-FU, 5-Fluorouracil], in assay [1] (1 mM), the viability at 1000 µM is around 39%. Besides, the viability at 100000 µM is below 20% in assay [1] (100 mM); 81% in assay [2] (100 mM, HCT116); 48% in assay [4] (100 mM, SW480, read-out: percent relative cell viability (MTS, relative to control)). The viability at 10000 µM in assay [2] (10 mM, HCT116) was determined as 18%; in assay [3] (HT-29, 10 mM, HT29, read-out: percent relative cell viability (MTS, relative to control)) it was 50%; in assay [4] (10 mM, SW480, read-out: percent relative cell viability (MTS, relative to control)), 9%.

Take `CNC(=O)c1cc(Oc2ccc(NC(=O)Nc3ccc(Cl)c(C(F)(F)F)c3)c(F)c2)ccn1` [Regorafenib]: the viability at 100 µM was below 20% in assay [1] (100 μM); below 25% in assay [2] (100 μM, HCT116, drug day 5, assay day 7); below 25% in assay [3] (HT-29, 100 μM, HT29, drug day 5, assay day 7, read-out: percent relative cell viability (MTS, relative to control)); below 25% in assay [4] (100 μM, SW480, drug day 5, assay day 7, read-out: percent relative cell viability (MTS, relative to control)).
